According to patent US4916122A, “3'-Azido-2',3'-dideoxyuridine anti-retroviral composition” (University of Georgia Research Foundation, Inc., priority 1987, dated 1990):
In brackets after ≈: the same amount, converted by molar mass. Read-outs that look alike come from different tables or passages of the source.

Experiments:
in vivo = test: in vivo; parameters: species or system mouse; settings: mice, 250 mg/kg iv
Method: In rhesus monkeys, the pharmocokinetic parameters after an oral dose of […] of CS-87 are as follows:
^a Mice were administered the drug at a dose of 250 mg/kg iv.

[1] = tested on: two particular enzymes isolated from L1210 cells; settings: Lin et al.; cited from earlier work
HIV-1 [2] = test: microbe, parasite or virus in culture; settings: Human immunodeficiency virus 1, PBMC, read-out: PBM (EC50)
polio virus-1 = settings: cited from earlier work
Coxsackie virus B4 = settings: Colla et al.; cited from earlier work
[3] = tested on: Mouse ecotropic (Cas-Br-M); test: Median effective antiviral concentration against mouse ecotropic virus (Table 5); type: cell-based, murine retrovirus; settings: unidentified retrovirus
Excerpt: A comparison of the differences in median effective an tiviral concentrations between human, non-human primate, and murine retroviruses is shown in Table 5. […] A further comparison of the activity of several nucleoside analogues, including CS-87, against HIV-1 and SIV in human PBM cells is shown in FIG. 6. The effect of delayed treatment with AZT, CS-87 or CS-91 on the replication of HIV-1 and SIV in human PBM cells is shown in FIGS. 7a, b, and c.

HIV = settings: in vitro
HIV-1 [4] = tested on: HIV-1
HIV p24 and p41 = test: Inhibition of HIV replication in human PBM cells, western blot analysis (Table 3)
HIV-1 (Strain HTLV-III) = test: Antiviral activity against HIV-1 in ATH-8 cells (Table 4)

**Q.** Which “Ratio: % B/S” value (in vivo; 5 min) does the source give for `[N-]=[N+]=N[C@H]1C[C@H](n2ccc(=O)[nH]c2=O)O[C@@H]1CO` [CS-87, 3'-azido-2',3'-dideoxyuridine] here?
**A.** 6.3%

**Q.** What about the Serum levels (in vivo; 5 min) of the same compound?
**A.** 125.7 µg/mL

**Q.** And the Kp at 5 min (in vivo; mouse, in vivo, iv, 250 mg/kg, 5 min, read-out: Ratio: % B/S)?
**A.** 0.043

**Q.** What about the concentration at 5 min (in vivo; mouse, in vivo, iv, 250 mg/kg, 5 min, read-out: Serum levels) of the same compound?
**A.** 71.3 µg/mL

**Q.** What about the concentration at 31 min (in vivo; mouse, in vivo, iv, 250 mg/kg, 31 min, read-out: Brain levels) of the same compound?
**A.** 11.1 µg/mL

**Q.** And the Kp at 31 min (in vivo; mouse, in vivo, iv, 250 mg/kg, 31 min, read-out: Ratio: % B/S)?
**A.** 0.122

**Q.** And the concentration at 31 min (in vivo; mouse, in vivo, iv, 250 mg/kg, 31 min, read-out: Serum levels)?
**A.** 91 µg/mL

**Q.** What about the concentration at 34 min (in vivo; mouse, in vivo, iv, 250 mg/kg, 34 min, read-out: Brain levels) of the same compound?
**A.** 5670 ng/mL

**Q.** And the Kp at 34 min (in vivo; mouse, in vivo, iv, 250 mg/kg, 34 min, read-out: Ratio: % B/S)?
**A.** 0.102

**Q.** What about the concentration at 34 min (in vivo; mouse, in vivo, iv, 250 mg/kg, 34 min, read-out: Serum levels) of the same compound?
**A.** 55500 ng/mL

**Q.** What about the concentration at 71 min (in vivo; mouse, in vivo, iv, 250 mg/kg, 71 min, read-out: Brain levels) of the same compound?
**A.** 6400 ng/mL

**Q.** What about the Kp at 71 min (in vivo; mouse, in vivo, iv, 250 mg/kg, 71 min, read-out: Ratio: % B/S) of the same compound?
**A.** 0.261

**Q.** And the concentration at 71 min (in vivo; mouse, in vivo, iv, 250 mg/kg, 71 min, read-out: Serum levels)?
**A.** 24500 ng/mL

**Q.** And the concentration at 1.2 h (in vivo; mouse, in vivo, iv, 250 mg/kg, 72 min, read-out: Brain levels)?
**A.** 7330 ng/mL

**Q.** What about the Kp at 1.2 h (in vivo; mouse, in vivo, iv, 250 mg/kg, 72 min, read-out: Ratio: % B/S) of the same compound?
**A.** 0.134

**Q.** And the concentration at 1.2 h (in vivo; mouse, in vivo, iv, 250 mg/kg, 72 min, read-out: Serum levels)?
**A.** 54800 ng/mL

**Q.** And the “inhibitory activity towards two particular enzymes isolated from L1210 cells” value [1]?
**A.** only marginal inhibitory activity

**Q.** And the EC50 (HIV-1 [2])?
**A.** 180 nM

**Q.** What about the “activity against polio virus-1” value (polio virus-1) of the same compound?
**A.** inactive

**Q.** And the “activity against Coxsackie virus B4” value (Coxsackie virus B4)?
**A.** inactive

**Q.** What about the EC50 [3] of the same compound?
**A.** 9.1 µM

**Q.** What about the “activity against HIV, in words” value (HIV) of the same compound?
**A.** selective anti-HIV-1 activity

**Q.** And the “activity compared to d2C in PBM cells” value (HIV-1 [4])?
**A.** less active

**Q.** And the “Western blot p24 (band intensity)” value (HIV p24 and p41; 0.1 μM)?
**A.** 3+

**Q.** What about the “Western blot p41 (band intensity)” value (HIV p24 and p41; 0.1 μM) of the same compound?
**A.** 2+

**Q.** What about the “Western blot p24 (band intensity)” value (HIV p24 and p41; 1 μM) of the same compound?
**A.** 2+

**Q.** And the “Western blot p41 (band intensity)” value (HIV p24 and p41; 1 μM)?
**A.** 1+

**Q.** What about the “Western blot p24 (band intensity)” value (HIV p24 and p41; 10 μM) of the same compound?
**A.** 0

**Q.** What about the “Western blot p41 (band intensity)” value (HIV p24 and p41; 10 μM) of the same compound?
**A.** 0

**Q.** And the “activity compared to d2C in ATH-8 cells” value (HIV-1 (Strain HTLV-III); ATH-8 cells)?
**A.** comparable activity to d2C

**Q.** And the MIC (HIV-1 (Strain HTLV-III); Human immunodeficiency virus 1, 240 h, read-out: ATH-8 (MIC))?
**A.** 0.4 µM (≈ 0.101 µg/mL)
